Data as given in patent US9695155B2, “Herbicidal substituted pyrimidinyloxy benzene compounds” (E. I. DU PONT DE NEMOURS AND COMPANY, priority 2013, dated 2017).

Assays:
[1] = system: barnyardgrass; test: Test A preemergence; format: in vivo, Echinochloa crus-galli; details: for Plant response rating, Barnyardgrass: 125 g ai/ha
In short: (§1)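 Pre- and postemergence greenhouse screen. Soil: loam + sand. Spray carrier: solvent mixture, non-phytotoxic, with surfactant. Post timing at 1–2 leaves, height 2–10 cm. Readout: visual injury on a 0–100 scale roughly 10 days after application, untreated plants as reference.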

[2] = system: kochia; test: Test A preemergence; format: in vivo, Kochia scoparia; details: for Plant response rating, Kochia: 125 g ai/ha; for Plant response rating, Kochia / Kochia plant response rating: 0 to 100 scale where 0 is no effect and 100 is complete control; for Kochia plant response rating: 500 g ai/ha
In short: as §1

[3] = system: ragweed; test: Test A preemergence; format: in vivo, Ambrosia elatior; details: for Plant response rating, Ragweed: 125 g ai/ha; for Plant response rating, Ragweed / Ragweed plant response rating: 0 to 100 scale where 0 is no effect and 100 is complete control; for Ragweed plant response rating: 500 g ai/ha
In short: as §1

[4] = system: Italian ryegrass; test: Test A preemergence; format: in vivo, Lolium multiflorum; details: for Plant response rating, Ryegrass, Italian: 125 g ai/ha; for Plant response rating, Ryegrass, Italian / Ryegrass, Italian plant response rating: 0 to 100 scale where 0 is no effect and 100 is complete control; for Ryegrass, Italian plant response rating: 500 g ai/ha
In short: as §1

[5] = system: giant foxtail; test: Test A preemergence; format: in vivo, Setaria faberii; details: for Plant response rating, Foxtail, Giant: 125 g ai/ha
In short: as §1

[6] = system: pigweed; test: Test A preemergence; format: in vivo, Amaranthus retroflexus; details: for Plant response rating, Pigweed: 125 g ai/ha
In short: as §1

[7] = system: barnyardgrass; test: Test A postemergence; format: in vivo, Echinochloa crus-galli; details: for Barnyardgrass plant response rating: 125 g ai/ha
In short: as §1

[8] = system: kochia; test: Test A postemergence; format: in vivo, Kochia scoparia; details: for Kochia plant response rating: 125 g ai/ha
In short: as §1

[9] = system: ragweed; test: Test A postemergence; format: in vivo, Ambrosia elatior; details: for Ragweed plant response rating: 125 g ai/ha
In short: as §1

[10] = system: Italian ryegrass; test: Test A postemergence; format: in vivo, Lolium multiflorum; details: for Ryegrass, Italian plant response rating: 125 g ai/ha
In short: as §1

[11] = system: giant foxtail; test: Test A postemergence; format: in vivo, Setaria faberii; details: for Foxtail, Giant plant response rating: 125 g ai/ha
In short: as §1

[12] = system: pigweed; test: Test A postemergence; format: in vivo, Amaranthus retroflexus; details: for Pigweed plant response rating: 125 g ai/ha
In short: as §1

[13] = system: wheat; test: Test A postemergence; format: in vivo, Triticum aestivum; details: for Wheat plant response rating: 125 g ai/ha
In short: as §1

[14] = system: corn; test: Test A postemergence; format: in vivo, Zea mays; details: for Corn plant response rating: 125 g ai/ha
In short: as §1

[15] = system: blackgrass; test: Test A postemergence; format: in vivo, Alopecurus myosuroides; details: for Blackgrass plant response rating: 125 g ai/ha
In short: as §1

[16] = system: galium; test: Test A postemergence; format: in vivo, Galium aparine; details: for Galium plant response rating: 125 g ai/ha
In short: as §1

[17] = system: rice; test: Test B flooded paddy test; format: in vivo, Oryza sativa; details: Flood, 250 g ai/ha; 0 to 100 scale where 0 is no effect and 100 is complete control
In short: (§2)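 Greenhouse flooded-pot test: compounds dosed into 3 cm standing water over 2-leaf plants, flood held constant. Rated visually after 13–15 days on 0–100 (complete control = 100); a dash marks no test result.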

[18] = system: sedge, umbrella; test: Test B flooded paddy test; format: in vivo, Cyperus difformis; details: Flood, 250 g ai/ha; 0 to 100 scale where 0 is no effect and 100 is complete control
In short: as §2

[19] = system: Heteranthera limosa; test: Test B flooded paddy test; format: in vivo; details: Flood, 250 g ai/ha; 0 to 100 scale where 0 is no effect and 100 is complete control
In short: as §2

[20] = system: barnyardgrass; test: Test B flooded paddy test; format: in vivo, Echinochloa crus-galli; details: Flood, 250 g ai/ha; 0 to 100 scale where 0 is no effect and 100 is complete control
In short: as §2

[21] = 0 to 100 scale where 0 is no effect and 100 is complete control
[22] = 31 g ai/ha, 0 to 100 scale, 0 no effect, 100 complete control
[23] = 500 g ai/ha, 0 to 100 scale where 0 is no effect and 100 is complete control

Compound | Plant response rating, Barnyardgrass [1, 21] | Plant response rating, Kochia [2] | Plant response rating, Ragweed [3] | Plant response rating, Ryegrass, Italian [4] | Plant response rating, Foxtail, Giant [5, 21] | Plant response rating, Pigweed [6, 21] | Barnyardgrass plant response rating [7, 21] | Kochia plant response rating [8, 21] | Ragweed plant response rating [9, 21] | Ryegrass, Italian plant response rating [10, 21] | Foxtail, Giant plant response rating [11, 21] | Pigweed plant response rating [12, 21] | Wheat plant response rating [13, 21] | Corn plant response rating [14, 21] | Blackgrass plant response rating [15, 21] | Galium plant response rating [16, 21] | Plant response rating, Rice [17] | Plant response rating, Sedge, Umbrella [18] | Plant response rating, Ducksalad [19] | Plant response rating, Barnyardgrass [20] | further results
CCCOc1cnn(-c2c(F)cccc2Oc2ncc(Cl)cn2)c1 [Compound 127] | 40 | 0 | 0 | 0 | 60 | 10 | 10 | 30 | 10 | 0 | 20 | 30 | 0 | 10 | 10 | 20 | 0 | 0 | 60 | 0 | Barnyardgrass plant response rating (0 to 100 scale) ([1]; 31 g ai/ha): 0; Kochia plant response rating (0 to 100 scale) ([2]; 31 g ai/ha): 0; Ragweed plant response rating (0 to 100 scale) ([3]; 31 g ai/ha): 0; Ryegrass, Italian plant response rating (0 to 100 scale) ([4]; 31 g ai/ha): 0; Foxtail, Giant plant response rating (0 to 100 scale) ([5]; 31 g ai/ha): 10; Pigweed plant response rating (0 to 100 scale) ([6]; 31 g ai/ha): 0; Plant response rating, Barnyardgrass [7, 22]: 0; Plant response rating, Kochia [8, 22]: 0; Plant response rating, Ragweed [9, 22]: 0; Plant response rating, Ryegrass, Italian [10, 22]: 0; Plant response rating, Foxtail, Giant [11, 22]: 0; Plant response rating, Pigweed [12, 22]: 20; Plant response rating, Wheat [13, 22]: 0; Plant response rating, Corn [14, 22]: 0; Plant response rating, Blackgrass [15, 22]: 0; Plant response rating, Galium [16, 22]: 10
CC(C)c1cnc(Oc2cccc(C#N)c2-n2cc(Br)cn2)nc1 [Compound 130] | 0 | 0 | 0 | 0 | 0 | 0 | 0 | 0 | 0 | 0 | 0 | 0 | 0 | 0 | 0 | 0 | 0 | 0 | 0 | 0 | Barnyardgrass plant response rating [1, 23]: 0; Kochia plant response rating [2]: 0; Ragweed plant response rating [3]: 0; Ryegrass, Italian plant response rating [4]: 0; Foxtail, Giant plant response rating [5, 23]: 0; Pigweed plant response rating [6, 23]: 0; Plant response rating, Barnyardgrass [7, 23]: 0; Plant response rating, Kochia [8, 23]: 0; Plant response rating, Ragweed [9, 23]: 0; Plant response rating, Ryegrass, Italian [10, 23]: 0; Plant response rating, Foxtail, Giant [11, 23]: 0; Plant response rating, Pigweed [12, 23]: 0; Plant response rating, Wheat [13, 23]: 0; Plant response rating, Corn [14, 23]: 0; Plant response rating, Blackgrass [15, 23]: 0; Plant response rating, Galium [16, 23]: 0
N#Cc1cccc(Oc2ncc(Cl)cn2)c1-n1cc(SC(F)(F)F)cn1 [Compound 143, 3-[(5-chloro-2-pyrimidinyl)oxy]-2-[4-(trifluoromethylthio)-1H-pyrazol-1-yl]-benzonitrile] | 30 | 50 | 0 | 0 | 80 | 90 | 0 | 30 | 0 | 0 | 0 | 70 | 0 | 30 | 0 | 30 | 0 | 0 | 40 | 0 | pest or weed control at 500 g/ha ([1]; Echinochloa crus-galli, pre-emergence, 240 h, 500 g ai/ha, 0 to 100 scale where 0 is no effect and 100 is complete control, read-out: Barnyardgrass plant response rating): 100%; Kochia plant response rating [2]: 100; Ragweed plant response rating [3]: 20; Ryegrass, Italian plant response rating [4]: 20; pest or weed control at 500 g/ha ([5]; Setaria faberi, pre-emergence, 240 h, 500 g ai/ha, 0 to 100 scale where 0 is no effect and 100 is complete control, read-out: Foxtail, Giant plant response rating): 100%; pest or weed control at 500 g/ha ([6]; Amaranthus retroflexus, pre-emergence, 240 h, 500 g ai/ha, 0 to 100 scale where 0 is no effect and 100 is complete control, read-out: Pigweed plant response rating): 100%; pest or weed control at 500 g/ha ([7]; Echinochloa crus-galli, post-emergence, 240 h, 500 g ai/ha, 0 to 100 scale where 0 is no effect and 100 is complete control, read-out: Plant response rating, Barnyardgrass): 80%; Plant response rating, Kochia [8, 23]: 90; Plant response rating, Ragweed [9, 23]: 100; Plant response rating, Ryegrass, Italian [10, 23]: 90; pest or weed control at 500 g/ha ([11]; Setaria faberi, post-emergence, 240 h, 500 g ai/ha, 0 to 100 scale where 0 is no effect and 100 is complete control, read-out: Plant response rating, Foxtail, Giant): 100%; pest or weed control at 500 g/ha ([12]; Amaranthus retroflexus, post-emergence, 500 g ai/ha, 0 to 100 scale where 0 is no effect and 100 is complete control, read-out: Plant response rating, Pigweed): 100%; Plant response rating, Wheat [13, 23]: 30; Corn plant response rating (crop injury, 0 = no effect, 100 = complete kill) at 500 g/ha ([14]; Zea mays, post-emergence, 240 h, 500 g ai/ha, 0 to 100 scale where 0 is no effect and 100 is complete control): 40%; Plant response rating, Blackgrass [15, 23]: 90; Plant response rating, Galium [16, 23]: 100
